# Results as given in patent publication US8877775B2, “Substituted 2-aza-bicyclo[2.2.2]octane-3-carboxylic acid (benzyl-cyano-methyl)-amides inhibitors of cathepsin C” (Boehringer Ingelheim International GmbH, priority 2013, dated 2014).
# How the values were obtained:
# [1] = target: recombinant human DPPI (Cathepsin C) (Homo sapiens (Human), UniProt P53634); test: Inhibition of human DPPI (Cathepsin C); type: biochemical; conditions: substrate Gly-Arg-AMC 50 μM, 30 min, room temperature
# Source text: Inhibition of Human DPPI (Cathepsin C)
# Materials: Microtiterplates (Optiplate-384 F) were purchased from PerkinElmer (Prod. No. 6007270). The substrate Gly-Arg-AMC was from Biotrend (Prod.-No. 808756 Custom peptide). Bovine serum albumin (BSA; Prod. No. A3059) and Dithiothreitol (DTT; Prod. No D0632) were from Sigma. TagZyme buffer was from Riedel-de-Haen (Prod.-No. 04269), NaCl was from Merck (Prod.-No. 1.06404.1000) and morpholinoethane sulfonic acid (MES), was from Serva (Prod.-No. 29834). The DPP1 inhibitor Gly-Phe-DMK was purchased from MP Biomedicals (Prod.-No. 03DK00625). The recombinant human DPPI was purchased from Prozymex. All other materials were of highest grade commercially available.
# The following buffers were used: MES buffer: 25 mM MES, 50 mM NaCl, 5 mM DTT, adjusted to pH 6.0, containing 0.1% BSA; TAGZyme Buffer: 20 mM NaH2PO4, 150 mM NaCl adjusted to pH 6.0 with HCl
# The recombinant human DPPI was diluted in TAGZyme buffer to 1 U/ml (38.1 μg/ml, respectively), and then activated by mixing in a 1:2 ratio with a Cysteamine aqueous solution (2 mM) and incubating for 5 min at room temperature.
# Five uL test compound (final concentration 0.1 nM to 100 μM) in aqua bidest (containing 4% DMSO, final DMSO concentration 1%) were mixed with 10 μL of DPPI in MES buffer (final concentration 0.0125 ng/μL) and incubated for 10 min. Then, 5 μL of substrate in MES buffer (final concentration 50 μM) were added. The microtiter plates were then incubated at room temperature for 30 min. Then, the reaction was stopped by adding 10 μL of Gly-Phe-DMK in MES-buffer (final concentration 1 μM). The fluorescence in the wells was determined using a Molecular Devices SpectraMax M5 Fluorescence Reader (Ex 360 nm, Em 460 nm) or an Envision Fluorescence Reader (Ex 355 nm, Em 460 nm).
# The analysis of the data was performed by calculating the percentage of fluorescence in the presence of test compound in comparison to the fluorescence of the vehicle control after subtracting the background fluorescence using the following formula: (RFU(sample)−RFU(background))*100/(RFU(control)−RFU(background))
# Data from these calculations were used to generate IC50 values for inhibition of DPPI, respectively.
# [2] = target: recombinant human Cathepsin K (Homo sapiens (Human), UniProt P43235); test: Inhibition of human Cathepsin K; type: biochemical; conditions: substrate Z-Gly-Pro-Arg-AMC 12.5 μM, 60 min, room temperature
# Source text: Inhibition of Human Cathepsin K
# Materials: Microtiterplates (Optiplate-384 F were purchased from PerkinElmer (Prod. No. 6007270). The substrate Z-Gly-Pro-Arg-AMC was from Biomol (Prod.-No. P-142). L-Cysteine (Prod. No. 168149) was from Sigma. Sodium actetate was from Merck (Prod.-No. 6268.0250), EDTA was from Fluka (Prod.-No. 03680). The inhibitor E-64 was purchased from Sigma (Prod.-No. E3132). The recombinant human Cathepsin K proenzyme was purchased from Biomol (Prod. No. SE-367). All other materials were of highest grade commercially available.
# The following buffers were used: Activation buffer: 32.5 mM sodium acetate, adjusted to pH 3.5 with HCl; Assay buffer: 150 mM sodium acetate, 4 mM EDTA, 20 mM L-Cysteine, adjusted to pH 5.5 with HCl,
# To activate the proenzyme, 5 μl procathepsin K were mixed with 1 ul activation buffer, and incubated at room temperature for 30 min.
# 5 μL test compound (final concentration 0.1 nM to 100 μM) in aqua bidest (containing 4% DMSO, final DMSO concentration 1%) were mixed with 10 uL of Cathepsin K in assay buffer (final concentration 2 ng/μL) and incubated for 10 min. Then 5 μL of substrate in assay buffer (final concentration 12.5 μM) were added. The plates were then incubated at room temperature for is 60 min. Then, the reaction was stopped by adding 10 μL of E64 in assay buffer (final concentration 1 μM). The fluorescence in the wells was determined using a Molecular Devices SpectraMax M5 Fluorescence Reader (Ex 360 nm, Em 460 nm).
# Each assay microtiter plate contains wells with vehicle controls (1% DMSO in bidest) as reference for non-inhibited enzyme activity (100% Ctl; high values) and wells with inhibitor (E64 in bidest+1% DMSO, final concentration 1 μM) as controls for background fluorescence (0% Ctl; low values). The analysis of the data was performed by calculating the percentage of fluorescence in the presence of test compound in comparison to the fluorescence of the vehicle control after subtracting the background fluorescence: (RFU(sample)−RFU(background))*100/(RFU(control)−RFU(background))
# Data from these calculations were used to generate IC50 values for inhibition of Cathepsin K, respectively.
# [3] = system: Neutrophil elastase activity in U937 cells; test: Neutrophil elastase activity in U937 cytosolic lysate after incubation with test compound; type: cell-based; conditions: Homo sapiens, U-937; U937 cells incubated 48 hours with compound; NE activity in lysate; read-out: Reduction of NE-activity in U937 cells IC50
# Description: Determination of Neutrophil Elastase Activity in U937 Cytosolic Lysate Preparation after Incubation with Test Compound Materials: Optiplate 384F were purchased from PerkinElmer (Prod. No. #6007270). 24 well Nunclon cell culture plates (No. 142475) and 96 well plates (No. 267245) were from Nunc. Dimethylsulfoxid (DMSO) was from Sigma (Prod. No. D8418). Nonidet-P40 (NP40) was from USBiological (Prod. No. N3500) Substrate, specific for Neutrophil elastase, was from Bachem (MeOSuc-Ala-Ala-Pro-Val-AMC; Prod. No. I-1270). Human neutrophil elastase was from Calbiochem (Prod. No. 324681) Buffers: Tris-buffer (100 mM Tris; 1M NaCL; pH 7.5) Tris-buffer+HSA 0.1%; Human Serum Albumin from Calbiochem (Cat#. 126658) Serine-protease buffer (20 mM Tris; 100 mM NaCL; pH 7.5)+0.1% HSA Serine protease lysis buffer: 20 mM Tris-HCL; 100 mM NaCl pH 7.5; +0.2% Nonidet-P40; PBS: phosphate buffered saline, without Ca and Mg, from Gibco Cell Culture: U937 from ECACC (Cat. No. 85011440) cultured in suspension at 37° C. and 5% CO2. Cell density: 0.2-1 Mio. Cells/ml. Medium: RPMI1640 GlutaMAX (No. 61870) with 10% FCS from Gibco Cell Seeding and Treatment: Compounds in 100% DMSO were diluted in Medium (—FCS) with 10% DMSO and further diluted according to the experiment planned. 20 μl of the compound solution was transferred in the respective wells of the 24 well plate and diluted with 2 ml cell suspension/well containing 1′10^5 cells/ml (final concentration of DMSO=0.1%). Compound dilution factor=100 Compounds (up to 7 concentrations) were tested in triplicates with 3 wells for the DMSO 0.1% control, incubated for 48 hours without medium change at 37° C., 5% CO2 and 95% relative to humidity. Cell Harvesting and Cell Lysate:
# Transfer the cell suspension in 2.2 ml Eppendorf cups. Separate cells from medium by centrifugation (400×g; 5 min; RT); discard the supernatant. Resuspend in 1 ml PBS; centrifugation (400×g; 5 min; RT); wash cells twice with PBS. Add 100 μl Serin lysis buffer (ice cold) to the cell pellet; resuspend the pellet and store on ice for 15 minutes. Remove debris by centrifugation at 15000×g for 10 min at 4° C. Transfer 80-100 μl lysate supernatant in 96 well plate and store immediately at −80° C.
# Neutrophil Elastase Activity Assay:
# Frozen lysates were thawn at 37° C. for 10 minutes and stored on ice. Protein content was determined with Bradford protein assay. Lysates were diluted to 0.2-0.5 mg/ml protein in serine protease buffer+HSA.
# Standard: NE (100 μg/ml stocksolution in Tris-buffer; stored at −80° C.) was diluted in Tris-buffer+HSA to 750 ng/ml, and further serially diluted 1:2 for the standard curve.
# Buffer, blank, standard and lysate samples were transferred into 384 well plate
# The increase in fluorescence (Ex360 nm/Em 460 nm) is determined over 30 minutes with a Molecular Device Spectramax M5 Fluorescence Reader. Kinetic Reduction (Vmax units/sec); 4 vmax points. The amount of neutrophil elastase (ng/ml) is calculated using the standard curve and the Spectramax software. The result is interpolated to ng/mg lysate protein using excel formula functions. […] IC50 is calculated using Graphpad Prism; nonlinear fitting (log(inhibitor) vs. response—Variable slope). The IC50 value is interpolated as the concentration of test compound which leads to a neutrophil elastase activity reduction of 50% (relative to the DMSO-treated control).
# [4] = Metabolic stability with human liver microsomes; type: in vitro ADME; conditions: pH 7.6; pooled human liver microsomes, 37° C., 1 μM test compound, 1 mg/ml protein, NADPH; read-out: In vitro stability in human liver microsome incubations t1/2
# Description: Determination of Metabolic Stability with Human Liver Microsomes
# The metabolic degradation of the test compound is assayed at 37° C. with pooled human liver microsomes. The final incubation volume of 100 μl per time point contains TRIS buffer pH 7.6 (0.1 M), magnesium chloride (5 mM), microsomal protein (1 mg/ml) and the test compound at a final concentration of 1 μM. Following a short preincubation period at 37° C., the reactions are initiated by addition of beta-nicotinamide adenine dinucleotide phosphate, reduced form (NADPH, 1 mM) and terminated by transfering an aliquot into acetonitrile after different time points. Additionally, the NADPH-independent degradation is monitored in incubations without NADPH, terminated at the last time point. The [%] remaining test compound after NADPH independent incubation is reflected by the parameter c(control) (metabolic stability). The quenched incubations are pelleted by centrifugation (10′000 g, 5 min). An aliquot of the supernatant is assayed by LC-MS/MS for the amount of parent compound.
# The half-life (t1/2 INVITRO) is determined by the slope of the semilogarithmic plot of the concentration-time profile. The intrinsic clearance (CL_[…]) is calculated by considering the amount of protein in the incubation: CL_[…][μl/min/mg protein]=(In 2/(half-life[min]*protein content[mg/ml]))*1′000. The half-life (t1/2 INVITRO) values of selected compounds in the metabolic stability assay described above are listed in the following table
# recombinant human DPPI (Cathepsin C), sequence (P53634 231-394): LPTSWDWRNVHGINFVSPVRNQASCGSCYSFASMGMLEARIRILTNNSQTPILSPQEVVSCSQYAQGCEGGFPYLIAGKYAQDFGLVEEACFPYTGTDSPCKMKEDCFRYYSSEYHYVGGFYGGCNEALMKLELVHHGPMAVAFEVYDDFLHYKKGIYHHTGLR
# recombinant human DPPI (Cathepsin C), sequence (P53634 395-463): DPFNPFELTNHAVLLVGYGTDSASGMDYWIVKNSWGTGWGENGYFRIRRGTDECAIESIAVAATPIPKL
# recombinant human DPPI (Cathepsin C), sequence (P53634 25-134): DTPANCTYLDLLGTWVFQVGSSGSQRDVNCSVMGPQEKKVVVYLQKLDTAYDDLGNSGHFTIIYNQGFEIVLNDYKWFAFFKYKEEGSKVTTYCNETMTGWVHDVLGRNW
# recombinant human Cathepsin K, sequence (P43235 115-329): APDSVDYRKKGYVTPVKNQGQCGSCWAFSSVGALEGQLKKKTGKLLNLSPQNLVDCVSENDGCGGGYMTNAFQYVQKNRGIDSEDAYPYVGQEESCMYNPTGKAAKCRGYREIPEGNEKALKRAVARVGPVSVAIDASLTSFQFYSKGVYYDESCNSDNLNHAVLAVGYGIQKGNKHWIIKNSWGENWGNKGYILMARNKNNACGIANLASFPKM
Structure (SMILES),IC50 [1],IC50 [2],IC50 [3],half-life at 1 μM [4]
CN1Cc2ccc(-c3ccc(C[C@@H](C#N)NC(=O)[C@H]4NC5CCC4CC5)c(F)c3)cc2C1 [Example 25],98 nM,–,–,–
N#C[C@H](Cc1ccc(-c2cc(F)c(F)c(F)c2)cc1)NC(=O)[C@H]1NC2CCC1CC2 [Example 23],244 nM,–,–,–
CS(=O)(=O)c1ccc(-c2ccc(C[C@@H](C#N)NC(=O)[C@H]3NC4CCC3CC4)cc2)cc1 [Example 15],110 nM,–,–,–
N#C[C@H](Cc1ccc(-c2cccc(C(N)=O)c2)cc1)NC(=O)[C@H]1NC2CCC1CC2 [Example 18],131 nM,9.7 µM,–,–
CS(=O)(=O)c1ccc(-c2ccc(C[C@@H](C#N)NC(=O)C3NC4CCC3CC4)c(F)c2)cc1C#N (stereo partly drawn) [Example 26],27.8 nM,–,–,–
"CS(=O)(=O)c1cc(-c2ccc(C[C@@H](C#N)NC(=O)[C@H]3NC4CCC3CC4)c(F)c2)ccc1C#N [Example 1, (2S)—N-[(1S)-1-cyano-2-[4-(4-cyano-3-methylsulfonyl-phenyl)-2-fluoro-phenyl]ethyl]-3-azabicyclo[2.2.2]octane-2-carboxamide]",–,2.7 µM,134 nM,120 min
N#Cc1cc(-c2ccc(C[C@@H](C#N)NC(=O)[C@H]3NC4CCC3CC4)cc2)ccn1 [Example 24],248 nM,–,–,–
N#C[C@H](Cc1ccc(-c2ccc3c(c2)CC(=O)N3)cc1)NC(=O)[C@H]1NC2CCC1CC2 [Example 14],103 nM,–,–,–
CS(=O)(=O)Nc1ccc(-c2ccc(C[C@@H](C#N)NC(=O)[C@H]3NC4CCC3CC4)cc2)cc1 [Example 17],124 nM,6.7 µM,–,–

# The remaining compounds from weak to strong by IC50 [1], led by results:
IC50 [1],IC50 [2],IC50 [3],half-life at 1 μM [4],Structure (SMILES)
164 nM,–,–,–,CCS(=O)(=O)c1ccc(-c2ccc(C[C@@H](C#N)NC(=O)[C@H]3NC4CCC3CC4)cc2)cc1 [Example 22]
160 nM,–,–,–,COCCN1C(=O)Cc2ccc(-c3ccc(C[C@@H](C#N)NC(=O)[C@H]4NC5CCC4CC5)cc3)cc21 [Example 21]
137 nM,–,–,–,N#C[C@H](Cc1ccc(-c2ccc3c(c2)CCNC3=O)cc1)NC(=O)[C@H]1NC2CCC1CC2 [Example 20]
118 nM,–,–,–,N#C[C@H](Cc1ccc(-c2ccc(C(N)=O)cc2)cc1)NC(=O)[C@H]1NC2CCC1CC2 [Example 16]
102 nM,10.8 µM,–,–,N#C[C@H](Cc1ccc(-c2ccc(S(N)(=O)=O)cc2)cc1)NC(=O)[C@H]1NC2CCC1CC2 [Example 13]
73.3 nM,–,–,–,CN1Cc2cc(-c3ccc(C[C@@H](C#N)NC(=O)[C@H]4NC5CCC4CC5)c(F)c3)ccc2S1(=O)=O [Example 27]
73 nM,14.8 µM,–,> 130 min,N#Cc1ccc(-c2ccc(C[C@@H](C#N)NC(=O)[C@H]3NC4CCC3CC4)cc2)cc1 [Example 9]
52.2 nM,–,–,–,CN1C(=O)Cc2ccc(-c3ccc(C[C@@H](C#N)NC(=O)[C@H]4NC5CCC4CC5)cc3)cc21 [Example 6]
